Where a SMILES comes first, the peptide text is derived from it. Where no end group is shown, it is not given here. The star is where a group is joined. Fmoc = O=C(OCC1c2ccccc2-c2ccccc21)*

The test system of series [1] is CL1-5 cells. Nature of the series: Cell proliferation assay in CL1-5 cells. The series is classed as cell-based. As to conditions: for growth inhibition (cell proliferation): Fmoc modified peptides, 24 h, FIG. 1 and FIG. 2; for Growth inhibition: LT fragments at 0, 12.5, 25 and 50 μM. Here is the method:
The peptides described below were Fmoc modified and dissolved in DMSO and […] and then used in cell proliferation assay. CL1-5 cells were cultured to 80% confluence in RPMI medium containing 10% FBS. After detachment, 3×10^4[…]cells were seeded onto 12-well plates. After 16 h of incubation, cells were either harvested before treatment (designated as 0 h), or treated with LT peptides for 24 h (designated 24 h), and viable cells were counted. Relative fold-change in cell number or percent increase in cell growth (%) was calculated by following formula: (Cell number24h−Cell number0h)/(Cell number of control24h−Cell number of control0h).

The subject of series [2] is CL1-5 cells. Nature of the series: Cell invasion assay (Matrigel-coated modified Boyden chamber) in CL1-5 cells. The series is classed as cell-based. As to conditions: for Invasion inhibition: LT fragments at 0, 12.5, 25 and 50 μM, FIG. 12. The method, then:
Fmoc-LT1-3 peptides were used in cell invasion assay. A 24-well modified Boyden chamber with a polycarbonate membrane (8-μm pore size) was used for in vitro invasion assays. […] CL1-5 cells (3×10^4 cells/well) in RPMI medium with various concentrations of peptide were seeded onto the upper chamber. […] After 24 h of incubation, the cells were fixed with ice-cold 100% methanol and stained with 10% Giemsa. Following staining, cells on the upper side of the membrane were removed with a cotton swab. The number of invaded cells attached to the lower surface of the polycarbonate membranes was counted under a light microscope. All experiments were performed in triplicate.

Series [3] has as its system CL1-5 lung cancer cells. Nature of the series: Tumor growth in xenograft animal model. Format: in vivo. The method, then: Six-week old immune deficient BALB/CAnN.Cg-Foxn1nu/CrlBltw mice were housed in individual ventilated chambers (IVC). A total of 2×10^6 CL1-5 lung cancer cells in 100 μL PBS were mixed with 100 μL of 10× Matrigel. The lung cancer cells/Matrigel mix was injected subcutaneously to the lower back of the mice. Three days later, the mice were treated with 0, 10, 20, or 30 nmol of Fmoc-LT-1-3 subcutaneously everyday. The Fmoc-LT-1-3 peptide was dissolved in 100% DMSO and diluted to the desired concentration in PBS from day 3 to day 17. On the 18th day, we observed that 80% of control group animal, 40% of 10 nmol group animal, 20% of 20 nmol group animal, and 40% of 30 nmol group animal developed tumor. Percent of tumor free animal increased with increasing level of Fmoc-LT1-3 between 10 nmol and 20 nmol. […] This phenomenon may be due to lower solubility of Fmoc-LT1-3 at higher concentration. We thus decided to replace the solvent from DMSO with γ-CD, and diluted the peptide to the desired concentration for injection on the 18th day and thereafter. The volume of tumor was measured periodically. […] On the 39th day, animals were sacrificed. The tumor and organs were weighted, fixed and embedded in paraffin. Embedded tissue were sectioned and stained with hematoxylin-eosin for histologic analysis.

In series [4] the test system is CL1-5 cells. Format: in vivo, mice. Here is the method:
CL1-5 cells were washed, detached, and resuspended in PBS. Subsequently, a single-cell suspension containing 2×10^6 cell in 80 μL PBS was mixed with 20 μL 10× Matrigel (Corning, 5117012). The cell suspension was subcutaneously injected into the upper back of the immune deficient BALB/CAnN.Cg-Foxn1nu/CrlBltw mice. […] The tumor-bearing mice were divided into five groups (n=8/group). […] On day 13, the mice in the Fmoc-LT1-3 group were subcutaneously injected with 20 nmol Fmoc-LT1-3/γ-CD in the lower back daily. […] During the course of each treatment, the tumor volume was measured every 3 days. The mortality rates of mice were recorded, which included mice with tumor volume over 1500 mm^3. The percent of survival rate is recorded in FIG. 11 and the median survival of each group is calculated in Table 1.

The test system of series [5] is A549. Nature of the series: Cell proliferation assay in A549 lung cancer cell line. Format: cell-based. As to conditions: A549, FIG. 4.
For series [6], the system named is H1355. In words: Cell proliferation assay in H1355 lung cancer cell line. Format: cell-based. To be noted: H1355, FIG. 4.
Series [7] concerns H460. In words: Cell proliferation assay in H460 lung cancer cell line. Format: cell-based. To be noted: H460, FIG. 4.
Series [8] concerns H1299. Nature of the series: Cell proliferation assay in H1299 lung cancer cell line. The series is classed as cell-based. To be noted: H1299, FIG. 4.

As to “FHIVEALA (Fmoc-FHIVEALA) [LT-A6, Fmoc modified in the proliferation assay]”, in series [1] (CL1-5 cells), the “growth inhibition (cell proliferation)” value was “better inhibition activity than F-moc-LT1-3 peptide”.

Consider “AHIVELLA (Fmoc-AHIVELLA) [LT-A1, Fmoc modified in the proliferation assay]”, for which the “growth inhibition (cell proliferation)” value in series [1] (CL1-5 cells) is recorded as “better inhibition activity than F-moc-LT1-3 peptide”.

With KIITNLSKQSTLNFDSPLYVGG [LT-3], the Invasion inhibition entry in series [2] was “inhibitory effect on cell invasion only and Yes”. Moreover, the Growth inhibition entry in series [1] (CL1-5 cells) is given as “No”.

As to `CC[C@H](C)[C@H](NC(=O)[C@H](Cc1c[nH]cn1)NC(=O)[C@H](Cc1ccccc1)NC(=O)OCC1c2ccccc2-c2ccccc21)C(=O)N[C@H](C(=O)N[C@@H](CCC(=O)O)C(=O)N[C@@H](CC(C)C)C(=O)N[C@@H](CC(C)C)C(=O)N[C@@H](C)C(=O)O)C(C)C` [Fmoc-LT1-3] (Fmoc-FHIVELLA-OH; N-terminus and C-terminus assumed), in series [3] (hematoxylin-eosin stained tissue, day 39), the “histologic analysis, toxicity” value is given as “did not reveal obvious toxicity”. Moreover, the “relative weight of organs” value in series [3] (treatment groups vs control group, day 39, FIG. 9) is “no significant differences”. Besides, the “effect on cisplatin-induced toxicity” value in series [4] (combination treatment with cisplatin vs cisplatin only group) was “alleviate cisplatin-induced toxicity”.

Consider “FAIVELLA (Fmoc-FAIVELLA) [LT-A2, Fmoc modified in the proliferation assay]”, for which, in series [1] (CL1-5 cells), the “growth inhibition (cell proliferation)” value was “better inhibition activity than F-moc-LT1-3 peptide”.

“Fmoc-LT-A3: Fmoc binds to N terminal of FHAVELLA (SEQ ID NO:10) (Fmoc-FHAVELLA)”: the “growth inhibition in lung cancer cell lines” value in series [5] is recorded as “no effect”; in series [6] it was “greatly inhibited”; in series [1] (CL1-5, FIG. 4) it was “greatly inhibited”; in series [7] it was “greatly inhibited”; in series [8], “partially inhibited”. Also, the cell invasion inhibition entry in series [2] (Fmoc peptides, 24 h, FIG. 5) is “inhibited cell invasion”. Further, the “growth inhibition (cell proliferation)” value in series [1] (CL1-5 cells) is “best growth inhibition capability”. Also, the “growth inhibition, dose effect experiment” value in series [1] (Fmoc-LT-peptides, CL1-5 cells, FIG. 3) is “best growth inhibition capability”.

Turning to ASAIYSVETINDGNFHIVELLA [LT-1], the Invasion inhibition result in series [2] is “inhibitory effect and Yes”. The Growth inhibition entry in series [1] (CL1-5 cells) was “inhibitory effect and Yes”.

LRQAPGQNGTSFHGCIRNLYINSE [LT-5]: in series [2], the Invasion inhibition entry was “inhibitory effect on cell invasion only and Yes”. In series [1] (CL1-5 cells), the Growth inhibition result is “No”.

As for `N.N.[Cl][Pt][Cl]` [cisplatin, reference compound], in series [4] (single agent: cisplatin 4 mg/kg IP weekly 4 times, or 20 nmol Fmoc-LT1-3/γ-CD s.c. daily), the Median survival is 37.5 days.

With `O=S(=O)(NCCNC/C=C/c1ccc(Br)cc1)c1cccc2cnccc12` [H89, reference compound], in series [1] (CL1-5 cells, FIG. 24), the “LT-peptide-mediated growth inhibition together with PKA inhibitor (H89)” value is given as “enhances growth inhibition activity”.

Regarding “FHIVELAA (Fmoc-FHIVELAA) [LT-A7, Fmoc modified in the proliferation assay]”, the “growth inhibition (cell proliferation)” value in series [1] (CL1-5 cells) is on record as “better inhibition activity than F-moc-LT1-3 peptide”.

Regarding “FHIAELLA (Fmoc-FHIAELLA) [LT-A4, Fmoc modified in the proliferation assay]”, the “growth inhibition (cell proliferation)” value in series [1] (CL1-5 cells) is recorded as “better inhibition activity than F-moc-LT1-3 peptide”.

In the case of GGMPGKSNVASLRQAPGQNGTSF [LT-4], the Invasion inhibition entry in series [2] was “inhibitory effect on cell invasion only and Yes”. In addition, the Growth inhibition entry in series [1] (CL1-5 cells) is recorded as “No”.

These data come from patent US11591368B2, “Peptides for cancer treatment” (CHUNG SHAN MEDICAL UNIVERSITY, priority 2017, dated 2023).
